Measurements as given in patent US8604053B2, “TRPV1 antagonists” (AbbVie Inc., priority 2008, dated 2013).

Columns and labels:
[1] = Rat telemetry protocol, core body temperature; type: in vivo; conditions: core body temperature of rats one hour post dosing, 100 μmol/kg p.o., relative to vehicle
Protocol: Male, Sprague Dawley rats, 225-250 grams were anesthetized with Sevoflurane (Abbott Laboratories). Rats were placed on a heating pad and covered with a sterile surgical drape. A ventral midline abdominal incision was made and sterile cotton tip applicators were used to gently move internal tissue and expose the abdominal aorta for implantation of the telemetry catheter (Data Sciences International; TL11M2-050-PXT). Blood flow was temporarily stopped to the lower extremities (5-7 min) with Diffenbach clamps to allow the insertion of the telemetry catheter into the abdominal aorta. Once inserted, a sterile cellulose patch was placed over the catheter/aorta and secured using a small amount of tissue adhesive (Vetbond, 3M). Once catheter placement was complete, the clamps were removed and blood flow was restored to the lower extremities. Thetransmitter was placed in the intraperitoneal cavity. The transmitter suture rib was sewn into the abdominal sutures to secure it in place. The skin was closed using sterile wound clips and the animal removed from Sevoflurane. Buprenex ([…] s.c.; Phoenix) was administered for post-operative analgesia. Animals were maintained on a heating pad until ambulatory, and then individually housed with food and water ad lib. Surgical staples were removed after 7-10 days post-implantation. Rats were allowed a 2-week post-surgical recovery period before treatment with test compound. Oral dosing (p.o.) was at time zero, with rats receiving a single dose of vehicle (10% EtOH, 20% Tween-80, 70% PEG-400) or a 100 μmol/kg dose of compound dissolved in vehicle. Temperature measurements were recorded every 15 minutes for the duration of the study (24 hours).
Representative compounds described herein have the novel property of having limited transient temperature effect on core body temperature of a mammal (e.g. rats). For example, compounds tested alter core body temperature of rats by less than about +0.5° C. at about 1 hour after administration of a single dose (100 μmol/kg) of the test compounds orally, for example, in the range from about −2.5° C. to less than about +0.5° C., from about −0.5° C. to less than about +0.5° C.; or from about −0.3° C. to about +0.3° C.
The term “core body temperature” as used herein, means the temperature measured in the intraperitoneal cavity.

CYP2C9 = target: T1, CYP2C9 (Homo sapiens, UniProt P11712); assay: CYP2C9 inhibition assay; type: in vitro ADME; conditions: pH 7.4, probe Luciferin-H (100 μM final), human liver microsomes, substrate Luciferin-H, read-out: CYP2C9 % inh @ 2.2 μM
T1 construct: human liver microsomes (BD Gentest); tissue BD Gentest; host or cells: human liver microsomes
T1 sequence (P11712 whole entry): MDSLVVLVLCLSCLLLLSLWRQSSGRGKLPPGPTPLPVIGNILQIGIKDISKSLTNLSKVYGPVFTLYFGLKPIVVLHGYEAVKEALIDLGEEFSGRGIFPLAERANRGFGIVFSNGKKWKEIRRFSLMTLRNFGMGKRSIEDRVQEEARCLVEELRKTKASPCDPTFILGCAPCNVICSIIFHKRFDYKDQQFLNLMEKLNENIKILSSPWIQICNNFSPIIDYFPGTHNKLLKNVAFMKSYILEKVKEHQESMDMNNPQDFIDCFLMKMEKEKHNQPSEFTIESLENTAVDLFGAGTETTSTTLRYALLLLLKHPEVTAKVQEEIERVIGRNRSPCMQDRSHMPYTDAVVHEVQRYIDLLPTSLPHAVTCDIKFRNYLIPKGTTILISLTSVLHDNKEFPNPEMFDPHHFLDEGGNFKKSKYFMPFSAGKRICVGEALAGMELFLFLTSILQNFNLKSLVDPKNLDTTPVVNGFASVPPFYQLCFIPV
Protocol: Stock solutions of test compounds were assayed in 96-well format for their ability to inhibit CYP2C9, CYP2D6, or CYP3A4 mediated metabolism of test substrates. Luciferin-H was used as the substrate for CYP2C9; 3-[2-(N,N-diethyl-N-methylammonium)ethyl]-7-methoxy-4-methylcoumarin (AMMC) was used as the substrate for CYP2D6; 7-benzyloxyquiniline (BZQ) was used as the substrate for CYP3A4. For each subtype, positive controls (sulphaphenazole in the case of CYP2C9; quinidine in the case of CYP2D6, ketoconazole in the case of CYP3A4) were used to validate assay results run in duplicate.
Pre-Incubation Mixture Preparation for CYP2C9 and CYP2D6: A pre-incubation mixture was prepared by combining 100 mM phosphate buffer (9.12 mL; pH 7.4), human liver microsomes (BD Gentest, 240 itt; final concentration: 0.4 mg/mL), and 10 mM nicotinamide adenine dinucleotide phosphate in 65.4 mM MgCl2 hexahydrate (120 μL; final concentration: 125 μM and 818 μM, respectively). To this was mixture is added a ‘regeneration’ mixture (120 μL) of 333 mM glucose-6-phosphate and 40 U/mL glucose-6-phosphate dehydrogenase in 5 mM sodium citrate (final concentration: 4 mM, 0.5 U/mL, and 0.06 mM, respectively).
Substrate Mixture Preparation for CYP2C9: To a solution of 25 mM phosphate buffer, (2.16 mL, pH 7.4) was added 5 mM Luciferin-H (Promega P450 Glo Assay V8792, 240 μL; final solution concentration 0.5 mM, final assay concentration 100 μM).
CYP2C9 Inhibiton Assay: To each well in the assay plate containing varying concentrations of test compound or control compound in DMSO (10 μL) Pre-Incubation Mixture (40 itt) was added to the wells and the assay plate was pre-incubated for 10 minutes at 37° C., with shaking or rocking. CYP2C9 Substrate Mixture (10 μL) was added to all wells and the assay plate was incubated for an additional 25 minutes at 37° C., with shaking or rocking. Final DMSO concentration was 1%. Luciferin-H detection reagent (Promega kit V8792, 50 μL) was added to all wells. The plate was then vortexed at ambient temperature for between 20 minutes and 2 hours, and the luminescence of each well was then read and recorded.

CYP3A4 = target: T2, CYP3A4 (Homo sapiens, UniProt P08684); assay: CYP3A4 inhibition assay; type: in vitro ADME; conditions: pH 7.4, probe 7-benzyloxyquiniline (BZQ), 50 μM final, human liver microsomes, substrate BZQ, read-out: CYP3A4 % inh @ 2.2 μM
T2 construct: human liver microsomes (BD Gentest, 450 μL; final concentration: 0.4 mg/mL); tissue BD Gentest; host or cells: human liver microsomes
T2 sequence (P08684 whole entry): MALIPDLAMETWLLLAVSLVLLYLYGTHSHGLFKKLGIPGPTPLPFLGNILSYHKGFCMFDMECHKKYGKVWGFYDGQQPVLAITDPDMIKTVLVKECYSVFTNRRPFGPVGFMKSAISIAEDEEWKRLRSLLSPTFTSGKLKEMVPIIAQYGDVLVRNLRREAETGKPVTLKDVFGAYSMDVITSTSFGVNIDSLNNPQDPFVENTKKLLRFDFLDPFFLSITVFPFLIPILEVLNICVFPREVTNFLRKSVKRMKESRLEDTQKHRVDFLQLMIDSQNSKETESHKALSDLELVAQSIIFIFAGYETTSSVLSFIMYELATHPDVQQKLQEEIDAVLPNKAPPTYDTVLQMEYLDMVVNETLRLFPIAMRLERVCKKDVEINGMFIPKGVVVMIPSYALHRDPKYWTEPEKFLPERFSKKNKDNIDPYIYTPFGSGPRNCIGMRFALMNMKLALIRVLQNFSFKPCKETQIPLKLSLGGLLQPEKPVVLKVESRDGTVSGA
Protocol: Luciferin-H was used as the substrate for CYP2C9; 3-[2-(N,N-diethyl-N-methylammonium)ethyl]-7-methoxy-4-methylcoumarin (AMMC) was used as the substrate for CYP2D6; 7-benzyloxyquiniline (BZQ) was used as the substrate for CYP3A4.
Pre-Incubation Mixture Preparation for CYP3A4: A pre-incubation mixture was prepared by combining 100 mM phosphate buffer (19.35 mL; pH 7.4), human liver microsomes (BD Gentest, 450 μL; final concentration: 0.4 mg/mL), and 10 mM nicotinamide adenine dinucleotide phosphate in 65.4 mM MgCl2 hexahydrate (225 μL; final concentration: 100 μM and 654 μM, respectively). To this was mixture was added a ‘regeneration’ mixture (225 μL) of 333 mM glucose-6-phosphate and 40 U/mL glucose-6-phosphate dehydrogenase in 5 mM sodium citrate (final concentration: 3.3 mM, 0.4 U/mL, and 0.05 mM, respectively).
Substrate Mixture Preparation for CYP3A4: To a solution of 100 mM phosphate buffer, (2.36 mL, pH 7.4) was added 30 mM BZQ in acetonitrile (40 μL; final solution concentration 0.5 mM, final assay concentration 50 μM).
CYP3A4 Inhibiton Assay: To each well in the assay plate containing varying concentrations of test compound or control compound in DMSO (10 μL), CYP3A4 Pre-Incubation Mixture (90 μL) was added to the wells and the assay plate was pre-incubated for 10 minutes at 37° C., with shaking or rocking. A pre-read of each well was performed at 405 nm and 535 nm extinction/emission. CYP3A4 Substrate Mixture (10 μL) was added to all wells and the assay plate was incubated for an additional […] at 37° C., with shaking or rocking. Final DMSO concentration was 1%. A post-read of each well was then performed at 405 nm and 535 nm extinction/emission.

Compound | Δ Temp (° C.) [1] [°C] | inhibition at 25 min, 2.2 µM (CYP2C9) [%] | inhibition at 25 min, 2.2 µM (CYP3A4) [%]
Cc1cc2c(NC(=O)N[C@@H]3C[C@](C)(CF)Oc4cc(Cl)ccc43)cccc2cn1 (single isomer, unassigned) [Example 121] | 0.0 | 15 | 23
Cc1cc2c(NC(=O)N[C@@H]3C[C@@](C)(CF)Oc4cc(Cl)ccc43)cccc2cn1 (single isomer, unassigned) [Example 122] | 0.0 | 20 | 20
Cc1cc2c(NC(=O)N[C@@H]3C[C@@](C)(C(F)F)Oc4cc(Cl)ccc43)cccc2cn1 (single isomer, unassigned) [Example 124] | 0.0 | 1.2 | 21
CC1(C)C[C@@H](NC(=O)Nc2cccc3cnccc23)c2cc(F)ccc2O1 [Example 5, N-[(4R)-6-fluoro-2,2-dimethyl-3,4-dihydro-2H-chromen-4-yl]-N′-isoquinolin-5-ylurea] | −0.2 | 55 | 61
CC1(C)C[C@@H](NC(=O)Nc2cccc3cnccc23)c2ccc(F)cc2O1 [Example 23, N-[(4R)-7-fluoro-2,2-dimethyl-3,4-dihydro-2H-chromen-4-yl]-N′-isoquinolin-5-ylurea] | −0.7 | 56 | 69
CC1(C)C[C@@H](NC(=O)Nc2cccc3cnccc23)c2ccccc2O1 [Example 27, N-[(4R)-2,2-dimethyl-3,4-dihydro-2H-chromen-4-yl]-N′-isoquinolin-5-ylurea] | −1.0 | 48 | 65
CCC1(CC)C[C@@H](NC(=O)Nc2cccc3cnccc23)c2cc(F)ccc2O1 [Example 28, N-[(4R)-2,2-diethyl-6-fluoro-3,4-dihydro-2H-chromen-4-yl]-N′-isoquinolin-5-ylurea] | −0.2 | 35 | 19
CC1(C)C[C@@H](NC(=O)Nc2cccc3cnccc23)c2ccc(C(F)(F)F)cc2O1 [Example 34, N-[(4R)-2,2-dimethyl-7-(trifluoromethyl)-3,4-dihydro-2H-chromen-4-yl]-N′-isoquinolin-5-ylurea] | −1.6 | 39 | 36
Cc1cc2c(NC(=O)N[C@@H]3CC(CF)(CF)Oc4ccc(F)cc43)cccc2cn1 [Example 65, N-[(4R)-6-fluoro-2,2-bis(fluoromethyl)-3,4-dihydro-2H-chromen-4-yl]-N′-(3-methylisoquinolin-5-yl)urea] | 0.0 | 0 | 0.57
Cc1cc2c(NC(=O)N[C@@H]3CCOc4c(OC(F)(F)F)cccc43)cccc2cn1 [Example 66, N-(3-methylisoquinolin-5-yl)-N′-[(4R)-8-(trifluoromethoxy)-3,4-dihydro-2H-chromen-4-yl]urea] | −0.9 | 4.5 | 0
CCCC1(CCC)C[C@@H](NC(=O)Nc2cccc3cnc(C)cc23)c2cccc(F)c2O1 [Example 68, N-[(4R)-8-fluoro-2,2-dipropyl-3,4-dihydro-2H-chromen-4-yl]-N′-(3-methylisoquinolin-5-yl)urea] | 0.1 | 13 | 6.4
CCC1(CC)C[C@@H](NC(=O)Nc2cccc3cnc(C)cc23)c2ccc(Cl)cc2O1 [Example 69, N-[(4R)-7-chloro-2,2-diethyl-3,4-dihydro-2H-chromen-4-yl]-N′-(3-methylisoquinolin-5-yl)urea] | 0.1 | 5.3 | 0
CCC1(CC)C[C@@H](NC(=O)Nc2cccc3cnc(Cl)cc23)c2cccc(F)c2O1 [Example 81, N-(3-chloroisoquinolin-5-yl)-N′-[(4R)-2,2-diethyl-8-fluoro-3,4-dihydro-2H-chromen-4-yl]urea] | −0.5 | 19 | 0
Cc1cc2c(NC(=O)N[C@@H]3CC(CF)(CF)Oc4cc(Cl)ccc43)cccc2cn1 [Example 84, N-[(4R)-7-chloro-2,2-bis(fluoromethyl)-3,4-dihydro-2H-chromen-4-yl]-N′-(3-methylisoquinolin-5-yl)urea] | 0.0 | 3.7 | 
Cc1cc2c(NC(=O)N[C@@H]3CC(CF)(CF)Oc4c(F)cccc43)cccc2cn1 [Example 85, N-[(4R)-8-fluoro-2,2-bis(fluoromethyl)-3,4-dihydro-2H-chromen-4-yl]-N′-(3-methylisoquinolin-5-yl)urea] | 0.2 | 7.2 | 0
Cc1cc2c(NC(=O)N[C@@H]3CC(CF)(CF)Oc4ccccc43)cccc2cn1 [Example 101, N-[(4R)-2,2-bis(fluoromethyl)-3,4-dihydro-2H-chromen-4-yl]-N′-(3-methylisoquinolin-5-yl)urea] | 0.0 | 11 | 
Cc1cc2c(NC(=O)N[C@@H]3CC(CF)(CF)Oc4cc(Br)ccc43)cccc2cn1 [Example 102, N-[(4R)-7-bromo-2,2-bis(fluoromethyl)-3,4-dihydro-2H-chromen-4-yl]-N′-(3-methylisoquinolin-5-yl)urea] | −0.7 | 13 | 
